For test [1], the system named is STZ mice. Nature of the test: Blood glucose in mouse type II diabetes model with pancreatic islet damage and obesity, STZ plus high-fat diet (Example 5). The format is in vivo. Conditions: STZ + high-fat diet ICR mice; single agent 0.5 g/kg per day by gavage, two weeks; 1 h after last administration; mean ± SD. An excerpt:
Effects of limonoid compound, acarbose or combination thereof on blood glucose in mouse type II diabetes model with pancreatic islet damage and obesity
In this example, a mouse model of type II diabetes with pancreatic islet damage and obesity was established by multiple modeling ICR mice with a small dose of streptozotocin (STZ), following with continuous high-fat diets (referring to literature: Zhang Jiyuan et al, Study on the effect of three plant extracts on improving glucose and lipid metabolism in type 2 diabetic mice, Food and Machinery, 2016, 32 (12): 142-147). […]
Experimental grouping: 15 male mice were randomly selected as the normal control group, and the remaining mice were subjected to a high-fat diet (high-fat diet formula: cholesterol 1%, egg yolk powder 10%, lard oil 10%, and basic feed 79%, for establishing an obesity mouse model) for consecutive 4 weeks and intraperitoneal injection of STZ at a dose of 35mg/kg for three consecutive days. After one week, the mice were subject to 24 hours of fasting and water deprivation, their fasting blood glucose was measured, and the mice with a blood glucose level of 15 to 25 mmol/L were selected and undifferentiatedly grouped and used in the experiment, continuously subjected to the high-fat diet, 15 mice in each group, and subjected to blood sampling and detection of indicators after 2 weeks of administration. […]

Test [2] concerns db/db mice. Kind of test: Serum leptin by Elisa in db/db mice (Example 2). It counts as in vivo. Conditions: single agent 0.04 g/kg per day by gavage, two weeks, mean ± SD. The text has this:
Effects of limonoid compound, acarbose or combination thereof on blood glucose and leptin in mouse type II diabetes model
In the present example, db/db mice (line name BKS.Cg-Dock7^m+/+Lepr^db/Nju) were used to perform hypoglycemic efficacy evaluation test of animals (blood glucose level and leptin). The limonoid compound was selected from obacunone, isoobacunoic acid and obacunone glycoside, and acarbose single administration group, obacunone single administration group, isoobacunoic acid single administration group, obacunone glycoside single administered group, and respective combination thereof with acarbose administration groups were set.
Conditions for experimental feeding: as type II diabetes model mice, 6-week-old SPF-grade db/db mice were purchased from the Nanjing Model Biology Institute, and subjected to experimental feeding after 7 days of preliminary feeding. It should be noted that the conditions for raising the mice were as follows: the temperature was 23±1° C., the humidity was 55±10%, the lights were turned on between 7 am and 7 pm (the lights were turned off at other time), and the mice were allowed to freely take in water and feed. […]

Structures are written as SMILES.

Turning to `C[C@H]1O[C@H](O[C@H]2[C@H](O)[C@@H](O)[C@@H](O[C@H]3[C@H](O)[C@@H](O)C(O)O[C@@H]3CO)O[C@@H]2CO)[C@H](O)[C@@H](O)[C@@H]1N[C@H]1C=C(CO)[C@@H](O)[C@H](O)[C@H]1O` (some centres unmarked) [Acarbose, acarbose], the Blood glucose value in test [1] is 15.7 ± 3.0 mmol/L. Moreover, the Leptin in test [2] is 35.57 ± 2.98 pg/mL.

The record behind these values is patent US20220296566A1, “COMBINATION PRODUCT CONTAINING LIMONOID COMPOUND AND ALPHA-GLUCOSIDASE INHIBITOR” (ZHEJIANG YANGSHENGTANG INSTITUTE OF NATURAL MEDICATION CO., …, priority 2019, published 2022).
